Test system: human PBMCs
Test: Cytokines in supernatants of anti-CD3/anti-CD28 stimulated human PBMC (Examples 6, 8, 9)
Type: cell-based
Conditions: for IL-2 in culture supernatants (fold over vehicle): day 2 post-stimulation, compound 10 at 1, 3, 10 μM
Description: The effect of compound 10 on IL-2 and IFN-γ production in human PBMCs was determined as follows. PBMCs from a single donor were adjusted to a density of 2×10^6 cells/mL, stimulated with 100 ng/mL of anti-CD3 and 100 ng/mL of anti-CD28 antibodies and treated with 1 μM, 3 μM, or 10 μM of compound 10. Supernatant from these cells was taken on day 2 post-stimulation and the levels of IL-2 and IFN-γ were determined by ELISA assay using Ready-SET-Go ELISA kits from Affimetrix Ebioscience according to the manufacturer's instructions.
The effect of compound 10 on IL-2 production in human PBMCs was determined as follows. […] Supernatant from these cells was taken on day 3 post-stimulation and the levels of IL-2 were determined by ELISA assay using Ready-SET-Go™ ELISA kits from Affimetrix Ebioscience and LEGENDplex™ bead-based immunoassays from BioLegend according to the manufacturer's instructions.
The effect of compound 10 on IL-2 production in human PBMC from each donor was determined as follows. PBMC from each donor were adjusted to a density of 2×10^6 cells/mL, stimulated with 100 ng/mL of anti-CD3 and 100 ng/mL of anti-CD28 antibodies and treated with 30 μM compound 10. Supernatant from these cells was taken on day 2 post-stimulation and the levels of IL-2 were determined by ELISA assay using LEGENDplex™ bead-based immunoassays from BioLegend (San Diego, Calif.) according to the manufacturer's instructions.
The effect of compound 10 on the production of a panel of additional cytokines (interleukin 5 (IL-5), interleukin 13 (IL-13), interleukin 6 (IL-6), interleukin 9 (IL-9), interleukin 10 (IL-10), interferon gamma (IFN-γ), tumor necrosis factor alpha (TNF-α), interleukin 17A (IL-17A), interleukin 17F (IL-17F), interleukin 4 (IL-4) and interleukin 22 (IL-22)) in pooled human PBMC obtained from eight donors was determined as follows. PBMC from eight donors were pooled, then adjusted to a density of 2×10^6 cells/mL, stimulated with 100 ng/mL of anti-CD3 and 100 ng/mL of anti-CD28 antibodies and treated with 30 μM compound 10. Supernatant from these cells was taken on day 2 post-stimulation and the levels of IL-5, IL-13, IL-6, IL-9, IL-10, IFN-γ, TNF-α, IL-17A, IL-17F, IL-4 and […] were determined by ELISA using LEGENDplex™ bead-based immunoassays from BioLegend (San Diego, Calif.) according to the manufacturer's instructions.

[1] = Example 9, day 2, PBMC of eight donors, 30 μM

O=C(c1ccccc1)N1CCN(c2cc(N3CCCCC3)c(F)cc2[N+](=O)[O-])CC1 [compound 6]
IL-2 in culture supernatants (fold over vehicle) (Example 6): increased IL-2 levels

CC1CCN(c2cc(N3CCN(S(=O)(=O)c4ccccc4)CC3)c([N+](=O)[O-])cc2F)CC1 [compound 10]
IFN-γ in culture supernatants, fold over vehicle (Example 6, day 2, 1, 3, 10 μM): increased interferon gamma (IFN-γ) in a dose-dependent manner
IL-2 in culture supernatants (fold over vehicle) (Example 6): increased IL-2 levels in a dose-dependent manner
IL-2 in culture supernatants (Example 8, day 3, single donor, 3, 10, 30, 60 μM): increased IL-2 levels in culture supernatants in a dose-dependent manner
IFN-γ in culture supernatants, fold over vehicle [1]: statistically significant fold increase
IL-6 in culture supernatants, fold over vehicle [1]: statistically significant fold increase
IL-10 in culture supernatants, fold over vehicle [1]: statistically significant fold increase
IL-17A in culture supernatants, fold over vehicle [1]: statistically significant fold decrease
TNF-α in culture supernatants, fold over vehicle [1]: statistically significant fold increase
IL-2 in culture supernatants, fold over vehicle, average (Example 9, day 2, eight donors, 30 μM): about 5 fold

Source: patent US20200345725A1, “Methods and Compositions for Treating Cancer” (Omeros Corporation, priority 2019, published 2020)
